Patent publication US20260062408A1, “PRODRUGS OF S[…]” (SYNEX HOLDINGS BV, priority 2022, published 2026)

Columns and labels:
5-HT2A receptor = target: T1, 5-HT2A receptor (Mus musculus, UniProt P35363); details: 1 mg/kg i.p., 30 min, same assay conditions; data from Halberstadt et al. 2019; cited from earlier work
T1 construct: tissue Jackson Laboratories; host or cells: living male C57BL/6J mice (whole animal, brain)

[1] = Psychedelic effect in volunteers experienced with ALD-52; type: in vivo, humans; details: human volunteers; for Substitution for ALD-52 / Emax: administered as tartrate salt; for Emax: relative to ALD-52 = 1, read-out: Maximum psychedelic effect produced (ALD-52 = 1); for Duration: duration of effect relative to ALD-52
Experimental: Compounds of the invention were tested on volunteers who were experienced with the use of the related compound ALD-52. For each compound, a solution was prepared by dissolving the tartrate salt in deionized water to produce a concentration either of 1 mg/ml of the tartrate salt, or calculated to be equivalent to 1 mg/ml of the free base. This was either administered directly, or was prepared into standardised dosage units by pipetting 0.1 ml of solution onto a square of perforated blotter paper, which was placed overnight in a desiccator and allowed to evaporate to dryness.

[2] = Preventative treatment of chronic cluster headache attacks in volunteers, eight weeks; type: in vivo, humans; details: for average self-rated severity of cluster headache attacks: baseline 8.78/10; for average cluster headache attacks per day: baseline 3.44 attacks per day
Text: Eighteen volunteers were recruited through cluster headache support groups in the Netherlands. Age range of volunteers was between 23 to 67 (average 45.17), 14 males and 4 females. All volunteers had previous experience using psychedelic drugs such as LSD or psilocybin to alleviate cluster headache attacks, as well as prescribed medications including verapamil, prednisone, sumatriptan, topiramate and indomethacin. Volunteers were asked to discontinue use of prescribed medications for five days preceding the commencement of the study and for the eight-week duration.
Participants were supplied standardised 3.0 mg dosage units of SYN-L-017 as the tartrate salt (equivalent to 2.58 mg of SYN-L-017 freebase), measured into capsules for oral administration. These were tested as a preventative for chronic cluster headache attacks. One 3 mg capsule was administered intermittently in a pattern of one day on, two days off for a period of eight weeks (using the protocol described in Karst et al. (Karst M, et al. The non-hallucinogen 2-bromo-lysergic acid diethylamide as preventative treatment for cluster headache: An open, non-randomized case series. Cephalalgia 2010; 30(9):1140-1144. DOI: 10.1177/0333102410363490)) and the volunteers were asked to keep a diary to track the frequency and self-rated severity of cluster headache attacks on a scale of 1-10.

T1 sequence (P35363 whole entry): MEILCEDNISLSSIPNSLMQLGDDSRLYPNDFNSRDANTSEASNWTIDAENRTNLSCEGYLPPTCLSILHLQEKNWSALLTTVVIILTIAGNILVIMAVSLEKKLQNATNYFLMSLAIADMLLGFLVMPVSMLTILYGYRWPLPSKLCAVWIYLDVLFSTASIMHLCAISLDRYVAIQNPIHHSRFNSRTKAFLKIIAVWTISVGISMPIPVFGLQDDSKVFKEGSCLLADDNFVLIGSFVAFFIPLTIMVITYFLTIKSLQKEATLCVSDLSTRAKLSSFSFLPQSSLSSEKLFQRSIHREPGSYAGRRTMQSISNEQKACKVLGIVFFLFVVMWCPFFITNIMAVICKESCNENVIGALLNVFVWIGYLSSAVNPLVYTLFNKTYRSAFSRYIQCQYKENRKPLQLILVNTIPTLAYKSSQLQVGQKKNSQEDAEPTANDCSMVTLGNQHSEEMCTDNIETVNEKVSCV

Compound	Substitution for ALD-52 [1]	Emax [1]	further results
CCN(CC)C(=O)[C@@H]1C=C2c3cccc4c3c(cn4C(C)=O)C[C@H]2N(C)C1 [ALD-52, 1-acetyl-d-lysergic acid diethylamide]	–	–	average HTR count (5-HT2A receptor): 16.6
CCCCCCCCCCCC(=O)n1cc2c3c(cccc31)C1=C[C@@H](C(=O)N(CC)CC)CN(C)[C@@H]1C2 [SYN-L-004, 1-dodecanoyl-lysergic acid diethylamide]	Partial	25%	Duration [1]: Slightly longer
CCN(CC)C(=O)[C@@H]1C=C2c3cccc4c3c(cn4C(=O)c3ccccc3C)C[C@H]2N(C)C1 [SYN-L-008, 1-(o-toluoyl)-lysergic acid diethylamide]	Partial	25%	–
CCN(CC)C(=O)[C@@H]1C=C2c3cccc4c3c(cn4S(=O)(=O)C3CC3)C[C@H]2N(C)C1 [SYN-L-014, 1-cyclopropanesulfonyl-lysergic acid diethylamide]	No substitution	0%	–
CCC(=O)n1c(Br)c2c3c(cccc31)C1=C[C@@H](C(=O)N(CC)CC)CN(C)[C@@H]1C2 [SYN-L-017, 1-propionyl-2-bromo-lysergic acid diethylamide]	No substitution	0%	average self-rated severity of cluster headache attacks ([2]; after four weeks, 3 mg tartrate capsule oral, one day on, two days off): 4.46 /10; average cluster headache attacks per day ([2]; after four weeks): 2.13 attacks per day; side effects consistent with psychedelic effects ([2]; eight-week study): No side effects consistent with psychedelic effects were reported; volunteers reporting no side effects of any significance ([2]; eight-week study): 75%; volunteers reporting side effects including dizziness, nausea, fatigue, difficulty concentrating and insomnia ([2]; eight-week study): 25%; volunteers who thought the drug more effective than their normally used prescribed medication ([2]; eight-week study): 83.33%; perceived severity of side effects ([2]; eight-week study, none rated moderate or severe): mild; average cluster headache attacks per day ([2]; end of the eight weeks): 1.78 attacks per day; average self-rated severity of cluster headache attacks ([2]; end of the eight weeks): 3.72 /10; volunteers reporting improvement of cluster headache symptoms ([2]; overall, eight-week study): 91.67%
CCN(CC)C(=O)[C@@H]1C=C2c3cccc4c3c(cn4C(=O)C(C)(C)C)C[C@H]2N(C)C1 [SYN-L-024, 1-pivaloyl-lysergic acid diethylamide]	Partial	25%	Duration [1]: Shorter duration
CCCCCCCCCCCCCCCCCC(=O)n1cc2c3c(cccc31)C1=C[C@@H](C(=O)N(CC)CC)CN(C)[C@@H]1C2 [SYN-L-042, 1-stearoyl-lyserqic acid diethylamide]	Partial	25%	–
CCCCCCCC/C=C\CCCCCCCC(=O)n1cc2c3c(cccc31)C1=C[C@@H](C(=O)N(CC)CC)CN(C)[C@@H]1C2 [SYN-L-043, 1-oleoyl-lyserqic acid diethylamide]	Partial	25%	–
C=CCN1C[C@H](C(=O)N(C)C(C)C)C=C2c3cccc4c3c(cn4C(=O)CC)C[C@H]21 [SYN-L-073, 1-propionyl-6-allyl-6-nor-lysergic acid methylisopropylamide]	Partial	50%	–
CC(=O)n1cc2c3c(cccc31)C1=C[C@@H](C(=O)N3CCOCC3)CN(C)[C@@H]1C2 [SYN-L-196, 1-acetyl-lysergic acid morpholide]	Partial	50%	–
CCC(=O)n1cc2c3c(cccc31)C1=C[C@@H](C(=O)N(CC)C3CC3)CN(C)[C@@H]1C2 [SYN-L-197, 1-propionyl-lyserqic acid ethylcyclopropylamide]	Partial	50%	–
C=C(C)CN1C[C@H](C(=O)N(CC)CC)C=C2c3cccc4c3c(cn4C(=O)CC)C[C@H]21 [SYN-L-203, 1-propionyl-6-methallyl-6-nor-lysergic acid diethylamide]	Partial	25%	–
